Here are results for 24 molecules from patent publication US8735584B2 (Merck Patent GmbH, priority 2008, dated 2014).

Where only a bound is given, the exact number is not on record here.

This assay has as its target T1, GST-Aurora A (Homo sapiens, UniProt O14965).
T1 construct: N-terminal GST fusion with full length Aurora A (1-403 amino acids); purchased Carna Biosciences 05-101
T1 sequence (O14965 1-403): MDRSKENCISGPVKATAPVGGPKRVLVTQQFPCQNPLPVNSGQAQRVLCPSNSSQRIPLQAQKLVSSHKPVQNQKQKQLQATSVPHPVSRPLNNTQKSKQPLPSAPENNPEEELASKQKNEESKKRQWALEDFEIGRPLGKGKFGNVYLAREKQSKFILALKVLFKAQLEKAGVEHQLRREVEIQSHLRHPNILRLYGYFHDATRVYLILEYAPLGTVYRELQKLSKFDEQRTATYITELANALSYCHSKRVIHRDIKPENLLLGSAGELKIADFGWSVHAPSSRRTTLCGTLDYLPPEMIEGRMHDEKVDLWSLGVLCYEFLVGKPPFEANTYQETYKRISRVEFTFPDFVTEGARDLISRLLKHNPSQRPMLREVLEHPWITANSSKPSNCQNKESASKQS
Briefly: Aurora A IC50, Caliper LC3000 mobility shift assay. The class given is biochemical. To be noted: LC3000 method; 15 uM ATP (the KM value); read-out: Aurora Kinase A Activity (IC50). On the procedure:
The Aurora assays described here are performed on two Caliper Life Sciences systems: the LC3000 and the Desktop Profiler. These provide data on enzyme activity via measurement of the relative amounts of phosphorylated or unphosphorylated fluorescently labelled substrate peptide at the end of an enzymatic reaction. These different states of peptide are resolved by applying a potential difference across the sample. The presence of the charged phosphate group on the product (as opposed to the substrate) causes a different peptide mobility between the two peptides. This is visualized by excitation of the fluorescent label on the substrate and product peptides and represented as peaks within the analysis software.
In order to measure inhibitor activity of Aurora A inhibitors in the Caliper Life Sciences LC3000, a TTP Mosquito liquid handling instrument is used to place 0.25 ul of the appropriate concentration of inhibitor in 100% DMSO (for a dose response curve calculation) into each well of a 384-well plate. To this reaction components are added to a final volume of 25 ul: • 0.067 ng/ul GST-Aurora A (Carna Biosciences 05-101. N-terminal GST fusion with full length Aurora A (1-403 amino acids), accession number NP 940835.1). • 15 uM ATP (Fluke, 02055) • 1 mM DTT (Sigma, D0632) • 1 mM MgCl2 (Sigma, M1028) • 1 uM substrate peptide (sequence FITC-LRRASLG-(CONH2), synthesized by Tufts Peptide Synthesis service. • 100 mM HEPES pH 7.5 (Calbiochem, 391338) • 0.015% Brij-35 (Sigma, B4184)
The reaction is incubated for 90 min at 25 C, and then stopped by the addition of 70 ul of Stop buffer (100 mM HEPES pH 7.5, 0.015% Brij-35, 10 mM EDTA (Sigma, E7889)).
The plate is read on a Caliper LC3000 in an Off-Chip mobility shift assay format, using the following parameters for a 12-sipper chip: screening pressure—1.8 psi, upstream voltage—2700, downstream voltage—1000. These conditions cause unphosphorylated substrate and phosphorylated product peptide to resolve as separate peaks allowing direct measurement of percentage of conversion of substrate to product. The percent conversion can be plotted against concentration of inhibitor to produce a sigmoidal dose response curve, from which an 1050 can be calculated using XLFit for Microsoft Excel.
In the desired wells of a 384-well plate, Aurora A (0.067 ng/ul) was incubated with 15 uM ATP (the KM value), 1 mM DTT, 1 mM MgCl2, and 1 uM peptide substrate (sequence FITC-LRRASLG-(CONH2), FITC=fluorescein isothiocyanate) in 100 mM HEPES pH 7.5 and 0.015% Brij-35 buffer. The reaction was incubated for 90 min at 25 C, and then stopped by the addition of 45 ul of Stop buffer (100 mM HEPES ph 7.5, 0.015% Brij-35, 10 mM EDTA).
The plate was read in a Caliper LC 3000 in an Off-Chip mobility shift assay format, using the following parameters: screening pressure—1.8 psi, upstream voltage—2700, downstream voltage—1000. These conditions cause unphosphorylated substrate peptide to resolve as a peak before that of the phosphorylated peptide product.
In the following table “+” means >100 nM, “++” means 11-100 nM, and “+++” means <11 nM.
As a reminder, the IC50 is the point on the concentration scale where inhibition reaches its midpoint. Take `O=c1[nH]c2ncccc2c2cc(NCc3ccc(F)cc3)ccc12` [Example 43, 9-(4-Fluoro-benzylamino)-5H-benzo[c][1,8]naphthyridin-6-one]: the IC50 was above 0.1 µM.
Next, `O=c1[nH]c2ncccc2c2cc(NCc3ccccc3[N+](=O)[O-])ccc12` [Compound 466, 9-(2-Nitrobenzylamino)benzo[c][1,8]naphthyridin-6(5H)-one]: above 0.1 µM; `O=C(Nc1ccc(Nc2ccnc3[nH]c(=O)c4c(C(=O)NCCO)cccc4c23)cc1)c1ccc(F)cc1C(F)(F)F` [Compound 444, 1-[4-(4-Fluoro-2-trifluoromethyl-benzoylamino)-phenylamino)-6-oxo-5,6-dihydro-benzo[c][1,8]naphthyridin-7-carboxylic acid 2-hydroxy ethyl amide]: below 0.011 µM; `NC(=O)c1ccc2c(=O)[nH]c3nccc(Nc4ccc(NC(=O)c5ccccc5)cc4)c3c2c1` [Compound 282, 1-(4-benzamidophenylamino)-6-oxo-5,6-dihydrobenzo[c][1,8]naphthyridine-9-carboxamide]: below 0.011 µM.
Next, `O=C(NCc1ccc(Nc2ccnc3[nH]c(=O)c4ccccc4c23)cc1)c1ccccc1` [Compound 327, N-(4-(6-oxo-5,6-dihydrobenzo[c][1,8]naphthyridin-1-ylamino)benzyl)benzamide]: 0.011 to 0.1 µM; `O=c1[nH]c2ncccc2c2cc(NCc3ccccc3C(F)(F)F)ccc12` [Example 48, 9-(2-Trifluoromethyl-benzylamino)-5H-benzo[c][1,8]naphthyridin-6-one]: 0.011 to 0.1 µM; `CN(C)CCNC(=O)c1cccc2c1c(=O)[nH]c1nccc(Nc3ccc(NC(=O)c4ccc(F)cc4C(F)(F)F)cc3)c12` [Compound 440, 1-[4-(4-Fluoro-2-trifluoromethyl-benzoylamino)-phenylamino)-6-oxo-5,6-dihydro-benzo[c][1,8]naphthyridin-7-carboxylic acid 2-dimethylamino-ethyl amide]: below 0.011 µM.
For the molecule `O=C(Nc1ccc(Nc2ccnc3[nH]c(=O)c4ccccc4c23)cc1)c1ccccc1C(F)(F)F` [Compound 379, N-[4-(6-Oxo-5,6-dihydro-benzo[c][1,8]naphthyridin-1-ylamino)-phenyl]-2-trifluoromethyl-benzamide], the IC50 is below 0.011 µM.
Consider `O=C(Cc1cc(Nc2ccnc3[nH]c(=O)c4ccccc4c23)n[nH]1)Nc1ccc(F)c(F)c1` [Compound 313, N-(3,4-Difluorophenyl)-2-(3-(6-oxo-5,6-dihydrobenzo[c][1,8]naphthyridin-1-ylamino)-1H-pyrazol-5-yl)acetamide], for which the half-inhibitory concentration (IC50) was above 0.1 µM.
The same measure for `O=C(Nc1ccc(Nc2ccnc3[nH]c(=O)c4ccccc4c23)cc1)C(F)c1ccccc1` (stereo not drawn) [Compound 505, 2-Fluoro-N-(4-(6-oxo-5,6-dihydrobenzo[c][1,8]naphthyridin-1-ylamino)phenyl)-2-phenylacetamide]: 0.011 to 0.1 µM; for `CN1CCC(C(=O)Nc2ccc(Nc3ccnc4[nH]c(=O)c5ccccc5c34)cc2)CC1` [Compound 346, 1-Methyl-N-(4-(6-oxo-5,6-dihydrobenzo[c][1,8]naphthyridin-1-ylamino)phenyl)piperidine-4-carboxamide]: above 0.1 µM.
The same measure for `O=C(Nc1ccc(Nc2ccnc3[nH]c(=O)c4ccccc4c23)cc1)c1cc(Cl)cc(Cl)c1` [Compound 390, 3,5-Dichloro-N-[4-(6-oxo-5,6-dihydro-benzo[c][1,8]naphthyridin-1-ylamino)-phenyl]-benzamide]: below 0.011 µM.
Next, `O=C(Nc1ccc(Nc2ccnc3[nH]c(=O)c4ccccc4c23)cc1)C1(C(F)(F)F)CCCCC1` [Compound 499, N-(4-(6-Oxo-5,6-dihydrobenzo[c][1,8]naphthyridin-1-ylamino)phenyl)-1-(trifluoromethyl)cyclohexanecarboxamide]: 0.011 to 0.1 µM.
Take `O=C(Nc1ccc(Nc2ccnc3[nH]c(=O)c4ccccc4c23)cc1)c1ccc(Cl)c(Cl)c1` [Compound 398, 3,4-Dichloro-N-[4-(6-oxo-5,6-dihydro-benzo[c][1,8]naphthyridin-1-ylamino)-phenyl]-benzamide]: the IC50 is below 0.011 µM.
Next, `O=C(CN1CCC(Nc2ccnc3[nH]c(=O)c4ccccc4c23)CC1)Nc1ccccn1` [Compound 483, 2-(4-(6-Oxo-5,6-dihydrobenzo[c][1,8]naphthyridin-1-ylamino)piperidin-1-yl)-N-(pyridin-2-yl)acetamide]: above 0.1 µM.
The same measure for `CC(C(=O)Nc1ccccc1)N1CCC(Nc2ccnc3[nH]c(=O)c4ccccc4c23)CC1` (stereo not drawn) [Compound 287, 2-(4-(6-oxo-5,6-dihydrobenzo[c][1,8]naphthyridin-1-ylamino)piperidin-1-yl)-N-phenylpropanamide]: above 0.1 µM; for `O=C(Nc1ccc(Nc2ccnc3[nH]c(=O)c4ccccc4c23)cc1)c1c(Cl)cccc1Cl` [Compound 395, 2,6-Dichloro-N-[4-(6-oxo-5,6-dihydro-benzo[c][1,8]naphthyridin-1-ylamino)-phenyl]-benzamide]: below 0.011 µM; for `O=C(Nc1ccc(Nc2ccnc3[nH]c(=O)c4ccc(CO)cc4c23)cc1)c1ccccc1` [Compound 279, N-(4-(9-(Hydroxymethyl)-6-oxo-5,6-dihydrobenzo[c][1,8]naphthyridin-1-ylamino)phenyl)benzamide]: below 0.011 µM.
The same measure for `O=C(Nc1ccc(Nc2ccnc3[nH]c(=O)c4c(C(=O)NCCCN5CCOCC5)cccc4c23)cc1)c1ccc(F)cc1C(F)(F)F` [Compound 443, 1-[4-(4-Fluoro-2-trifluoromethyl-benzoylamino)-phenylamino)-6-oxo-5,6-dihydro-benzo[c][1,8]naphthyridin-7-carboxylic acid 3-morpholin-4-yl-propyl amide]: below 0.011 µM; for `O=C(c1cccn(-c2ccc(F)cc2)c1=O)N1CCOc2cc(Oc3ccnc4[nH]c(=O)c5ccccc5c34)ccc21` [Example 228, 1-{4-[1-(4-Fluoro-phenyl)-2-oxo-1,2-dihydro-pyridine-3-carbonyl]-3,4-dihydro-2H-benzo[1,4]oxazin-7-yloxy}-5H-benzo[c][1,8]naphthyridin-6-one]: above 0.1 µM.
For the molecule `O=C(Cc1ccccc1)N1CCC(Nc2ccnc3[nH]c(=O)c4ccccc4c23)C1` (stereo not drawn) [Compound 369, 1-(1-(2-Phenylacetyl)pyrrolidin-3-ylamino)benzo[c][1,8]naphthyridin-6(5H)-one], the 50% inhibitory concentration (IC50) was above 0.1 µM.
The same measure for `O=C(Nc1ccc(Nc2ccnc3[nH]c(=O)c4c(C(=O)NCCCN5CCOCC5)cccc4c23)cc1)c1ccccc1` [Compound 437, 1-[4-Benzoylamino-phenylamino)-6-oxo-5,6-dihydro-benzo[c][1,8]naphthyridin-7-carboxylic acid 3-morpholin-4-yl-propyl amide]: below 0.011 µM; for `O=C(Nc1ccc(Nc2ccnc3[nH]c(=O)c4ccc(F)cc4c23)cc1)c1ccc(F)cc1C(F)(F)F` [Compound 413, 4-Fluoro-N-[4-(9-fluoro-6-oxo-5,6-dihydro-benzo[c][1,8]naphthyridin-1-ylamino)-phenyl]-2-trifluoromethyl-benzamide]: below 0.011 µM.
Next, `O=C(c1ccc(F)cc1C(F)(F)F)N1CCOc2cc(Oc3ccnc4[nH]c(=O)c5ccccc5c34)ccc21` [Example 219, 1-[4-(4-Fluoro-2-trifluoromethyl-benzoyl)-3,4-dihydro-2H-benzo[1,4]oxazin-7-yloxy]-5H-benzo[c][1,8]naphthyridin-6-one]: above 0.1 µM.
